We go through ten molecules from ChEMBL document CHEMBL1201862, “PubChem BioAssay data set” (2004).

Assay [1] has as its target T1, Long-chain-fatty-acid--AMP ligase FadD28 (Mycobacterium tuberculosis, UniProt P9WQ59).
T1 sequence (P9WQ59 whole entry): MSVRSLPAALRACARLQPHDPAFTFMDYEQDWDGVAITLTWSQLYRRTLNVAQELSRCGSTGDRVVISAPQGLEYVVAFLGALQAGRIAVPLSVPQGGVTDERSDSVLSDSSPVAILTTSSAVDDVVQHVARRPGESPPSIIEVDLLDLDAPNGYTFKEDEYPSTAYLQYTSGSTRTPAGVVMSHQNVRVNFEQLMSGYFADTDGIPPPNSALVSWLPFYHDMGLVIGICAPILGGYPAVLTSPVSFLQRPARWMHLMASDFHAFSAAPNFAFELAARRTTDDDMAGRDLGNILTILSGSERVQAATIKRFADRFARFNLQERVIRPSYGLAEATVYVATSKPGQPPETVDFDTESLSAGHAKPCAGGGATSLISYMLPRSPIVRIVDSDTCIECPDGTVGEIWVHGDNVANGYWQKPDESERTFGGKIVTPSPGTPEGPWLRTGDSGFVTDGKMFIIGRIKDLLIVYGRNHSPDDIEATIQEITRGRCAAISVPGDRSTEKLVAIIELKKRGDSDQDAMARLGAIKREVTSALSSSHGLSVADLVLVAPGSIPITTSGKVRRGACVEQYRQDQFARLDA
The experiment in a line: Fluorescence polarization aasay to screen for inhibitors that compete for the binding of FadD28 to a bisubstrate Measured in Biochemical System Using Plate Reader - 2147-01_Inhibitor_Dose_CherryPick_Activity. The format is functional, Mycobacterium tuberculosis H37Rv. (Fluorescence polarisation rises when a labelled molecule tumbles more slowly, as on binding a larger partner.)

In assay [2] the target is T2, Endoribonuclease toxin MazF (Escherichia coli K-12, UniProt P0AE70).
T2 sequence (P0AE70 whole entry): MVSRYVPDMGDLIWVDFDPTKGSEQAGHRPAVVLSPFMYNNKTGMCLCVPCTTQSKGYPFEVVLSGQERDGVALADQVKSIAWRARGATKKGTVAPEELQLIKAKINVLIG
In words: activation of MazEF endoribonuclease cleavage – biochemical, fluorescence, single-stranded RNA substrate, uHTS hits, dose response (AID 588481). The assay is classed as functional.

In assay [3] the target is T2, Endoribonuclease toxin MazF. The experiment in a line: substrate-only fluorescence increase artefacts – biochemical, single-stranded RNase substrate, counter-screen for MazEF activator project, dose response (AID 588502). The assay is classed as functional. On the technique in general: A counterscreen serves to expose hits that act by an unwanted route or on another target.

Assay [4] can be described thus: Trypanosoma cruzi growth suppression in host cells – NIH3T3 host cells, beta-gal luminescence, confirmation (AID 2044).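 Note: intracellular parasites grown in NIH/3T3 mouse fibroblasts as host cells; luminescent beta-galactosidase reporter signal from transgenic T. cruzi replicating inside host cells; inhibitors lower the luminescence signal.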 The format is functional, cell-based.
The nature of assay [5]: viability of PTEN-deleted HCT116 cells – cell-based, HCT116 PTEN knockout, dose response (AID 1047).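 Note: HCT116 colon tumor cells with PTEN knocked out; cells exposed to compound for 60 hours before readout; potency for loss of cell viability measured by luminescence.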 The assay is classed as functional.
Assay [6] in a line: NIH3T3 cell viability loss – ATP luminescence, mouse fibroblasts, counter-screen, dose response (AID 2010).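 Note: cells exposed to compound for about 90 hours before reading.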 The format is functional, cell-based.
Assay [7] is described as follows: viability of HCT116 lacking mutant beta-catenin – cell-based, human colon tumor, dose response (AID 1045).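 Note: HCT116 colon tumor cells with beta catenin knocked out; cells exposed to compound for 60 hours.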 The format is functional.
In a further assay the target is Cytochrome P450 2C19 (Homo sapiens, UniProt P33261). The experiment in a line: Cytochrome panel assay with activity outcomes. Panel member name: p450-cyp2c19 Compounds with AC50 equal or less than 10 uM are considered active. The format is functional. As to conditions: read-out: AC50.
For another assay, the system named is INS1. The experiment in a line: INS-1E survival protection against cytokine death – cell-based, luminescence, retest, dose response (AID 449756).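 Note: cell death triggered by IL-1 beta plus TNF-alpha plus IFN-gamma mixture; protective hits raise ATP signal compared with cytokine alone wells.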 The format is functional. The following applies: Rattus norvegicus.
Assay [8] is described as follows: viability loss in HepG2 hepatoma cells – cell-based, ATP luminescence, cherry-pick, activator set 2, cytotoxicity control, dose response (AID 1053143). The format is functional.
The nature of assay [9]: viability of uninfected HEp-2 cells – cell-based, HTS, cytotoxicity control for RSV inhibitor project, dose response (AID 2410). The assay is classed as functional. As to conditions: human respiratory syncytial virus.
The target in assay [10] is Intestinal-type alkaline phosphatase (Mus musculus, UniProt P24822). In words: PubChem AID 488785. The format is functional.
The target of assay [11] is T3, Alkaline phosphatase, tissue-nonspecific isozyme (Homo sapiens, UniProt P05186).
T3 sequence (P05186 whole entry): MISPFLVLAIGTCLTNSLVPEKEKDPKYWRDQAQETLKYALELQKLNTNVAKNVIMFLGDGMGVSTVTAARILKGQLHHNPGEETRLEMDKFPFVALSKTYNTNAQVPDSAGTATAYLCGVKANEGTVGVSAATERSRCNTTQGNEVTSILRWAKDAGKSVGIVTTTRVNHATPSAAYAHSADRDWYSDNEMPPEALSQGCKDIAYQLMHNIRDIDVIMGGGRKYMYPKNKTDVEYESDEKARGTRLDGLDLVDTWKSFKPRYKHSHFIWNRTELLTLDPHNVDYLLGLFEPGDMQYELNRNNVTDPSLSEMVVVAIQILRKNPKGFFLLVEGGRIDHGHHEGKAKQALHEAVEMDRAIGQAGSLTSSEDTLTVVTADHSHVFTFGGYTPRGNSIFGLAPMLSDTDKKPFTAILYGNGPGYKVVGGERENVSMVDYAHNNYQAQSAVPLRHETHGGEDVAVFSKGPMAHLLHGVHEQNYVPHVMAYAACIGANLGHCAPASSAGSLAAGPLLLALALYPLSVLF
In words: TNAP enzyme inhibition by screening hits, dose response, selectivity assay for mouse IAP inhibitor project, biochemical, human TNAP, uHTS hits (AID 488906). The format is functional.

For assay [12], the target named is Intestinal-type alkaline phosphatase (Homo sapiens, UniProt P09923). The experiment in a line: inhibition of human intestinal alkaline phosphatase – biochemical, dose response (AID 488876). The assay is classed as functional.
Assay [13] is described as follows: cells.
A short description of assay [14]: blockers of bursicon-stimulated LGR2 cAMP reporter – cell-based, HEK293, CRE-luciferase reporter, cherry pick, set 2, dose response (AID 743343).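 Note: transfected cells were stimulated with diluted bursicon conditioned medium after compound addition.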 The format is functional. In general terms: Reporter assays use an easily measured gene product as a stand-in for the process of interest.
The nature of assay [15]: blockade of melanocortin 4 receptor signaling – cell-based, plate reader, cherry pick, counter-screen for LGR2 antagonist project, dose response (AID 743444).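 Note: transfected HEK 293 cells stimulated with alpha-MSH peptide; potency of inhibitors of the alpha-MSH evoked signal.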 The assay is classed as functional.
The target in assay [16] is T4, Small ubiquitin-related modifier 1 (Homo sapiens, UniProt P63165). The experiment in a line: SUMO1 protein interaction blockers, potency – biochemical, fluorescence polarization, uHTS hits, dose response (AID 624382). The format is functional. The following applies: read-out: IC50_Mean.
Assay [17] addresses T4, Small ubiquitin-related modifier 1. In words: SUMO1 protein-protein binding blockers, potency – biochemical, FRET, dose response (AID 624383). The format is functional. The following applies: read-out: IC50_Mean.
A short description of assay [18]: Vero E6 cell cytotoxicity, dose response, cytotoxicity control for non-replicating M. tuberculosis project, secondary assay (AID 492998). The format is functional, VeroE6. As to conditions: Vero C1008.
The nature of assay [19]: cells. The format is functional.
Assay [20] is described as follows: bead-based luminescence quenchers, dual-tagged ARNT – biochemical, AlphaScreen, cherry-pick, artefact control for ARNT-TACC3 interaction inhibitor project, dose response (AID 651705).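 Note: AlphaScreen bead proximity signal that flags compounds interfering with the detection technology; potency reflects signal decrease which marks the compound as an assay artifact.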 The format is functional.
Assay [21] concerns the target T5, Methionyl-tRNA synthetase, putative (Trypanosoma brucei brucei, UniProt Q38C91).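 Note: Read-out by fluorescence polarization, run as a confirmatory high-throughput counterscreen; potency of MetRS inhibitors measured by reduced AMP formation.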
T5 sequence (Q38C91 whole entry): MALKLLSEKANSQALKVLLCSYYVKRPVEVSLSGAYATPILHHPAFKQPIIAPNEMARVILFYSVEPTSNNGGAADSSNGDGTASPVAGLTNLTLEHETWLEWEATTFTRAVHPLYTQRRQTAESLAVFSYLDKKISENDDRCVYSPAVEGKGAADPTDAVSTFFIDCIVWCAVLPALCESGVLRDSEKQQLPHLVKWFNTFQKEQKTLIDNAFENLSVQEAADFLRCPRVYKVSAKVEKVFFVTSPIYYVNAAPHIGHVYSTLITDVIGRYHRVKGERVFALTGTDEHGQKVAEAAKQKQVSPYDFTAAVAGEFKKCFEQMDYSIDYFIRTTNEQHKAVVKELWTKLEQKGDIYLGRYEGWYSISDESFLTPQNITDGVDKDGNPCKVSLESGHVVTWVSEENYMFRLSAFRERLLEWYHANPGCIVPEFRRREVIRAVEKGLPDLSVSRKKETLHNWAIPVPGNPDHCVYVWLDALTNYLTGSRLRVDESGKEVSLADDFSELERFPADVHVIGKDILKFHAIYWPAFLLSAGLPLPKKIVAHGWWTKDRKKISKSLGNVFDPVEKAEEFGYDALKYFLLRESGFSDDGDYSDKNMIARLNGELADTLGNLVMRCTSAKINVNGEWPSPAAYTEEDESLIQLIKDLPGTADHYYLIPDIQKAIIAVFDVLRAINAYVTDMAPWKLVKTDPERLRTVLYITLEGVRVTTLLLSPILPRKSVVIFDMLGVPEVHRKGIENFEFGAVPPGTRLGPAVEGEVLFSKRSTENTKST
The format is functional, Trypanosoma brucei brucei strain 927/4 GUTat10.1.

Assay [22] is described as follows: Counterscreen for inhibitors of Trypanosoma brucei methionyl tRNA synthetase (MetRS): Luminescence-based cell-based high throughput dose response assay to identify compounds that are cytotoxic to Jurkat human T lymphocyte cells. The assay is classed as functional.
The next assay has as its target T6, Galanin receptor type 3 (Homo sapiens, UniProt O60755).
T6 sequence (O60755 whole entry): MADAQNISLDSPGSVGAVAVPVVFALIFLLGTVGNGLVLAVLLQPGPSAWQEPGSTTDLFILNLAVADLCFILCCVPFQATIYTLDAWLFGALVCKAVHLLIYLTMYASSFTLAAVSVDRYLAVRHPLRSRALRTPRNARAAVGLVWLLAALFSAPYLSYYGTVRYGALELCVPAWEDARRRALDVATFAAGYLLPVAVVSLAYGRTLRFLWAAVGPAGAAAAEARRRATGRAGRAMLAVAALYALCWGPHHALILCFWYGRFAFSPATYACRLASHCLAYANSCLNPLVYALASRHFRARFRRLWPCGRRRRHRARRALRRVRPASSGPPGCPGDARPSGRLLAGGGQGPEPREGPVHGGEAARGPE
In words: Fluorescence-based cell-based primary high throughput dose response assay to identify antagonists of the Galanin Receptor 3 (GalR3). The format is functional.

The nature of assay [23]: cells. As to conditions: HEK-CNG. The format is functional, cell-based.

Molecules are shown by their SMILES. Calls of active or inactive are those of the source. A value given as a limit tells only on which side of the number the result lay.

T4 sequence (P63165 whole entry): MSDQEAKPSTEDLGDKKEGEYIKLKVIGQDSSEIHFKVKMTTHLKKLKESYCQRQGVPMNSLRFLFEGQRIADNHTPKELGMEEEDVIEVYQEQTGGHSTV
Sequence of Cytochrome P450 2C19 (P33261 whole entry): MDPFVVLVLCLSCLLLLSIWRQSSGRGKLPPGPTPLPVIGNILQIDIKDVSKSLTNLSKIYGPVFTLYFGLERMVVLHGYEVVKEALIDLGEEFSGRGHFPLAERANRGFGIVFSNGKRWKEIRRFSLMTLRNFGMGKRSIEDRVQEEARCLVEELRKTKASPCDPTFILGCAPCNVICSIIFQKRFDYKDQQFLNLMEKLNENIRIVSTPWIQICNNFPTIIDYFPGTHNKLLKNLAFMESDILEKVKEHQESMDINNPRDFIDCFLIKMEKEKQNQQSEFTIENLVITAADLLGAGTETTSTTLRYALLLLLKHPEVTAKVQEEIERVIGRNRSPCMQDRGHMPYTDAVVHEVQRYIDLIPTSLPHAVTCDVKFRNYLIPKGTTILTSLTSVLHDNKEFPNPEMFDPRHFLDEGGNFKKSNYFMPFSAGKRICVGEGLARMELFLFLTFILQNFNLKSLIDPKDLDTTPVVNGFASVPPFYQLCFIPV
Sequence of Intestinal-type alkaline phosphatase (Homo sapiens, UniProt P09923) (P09923 whole entry): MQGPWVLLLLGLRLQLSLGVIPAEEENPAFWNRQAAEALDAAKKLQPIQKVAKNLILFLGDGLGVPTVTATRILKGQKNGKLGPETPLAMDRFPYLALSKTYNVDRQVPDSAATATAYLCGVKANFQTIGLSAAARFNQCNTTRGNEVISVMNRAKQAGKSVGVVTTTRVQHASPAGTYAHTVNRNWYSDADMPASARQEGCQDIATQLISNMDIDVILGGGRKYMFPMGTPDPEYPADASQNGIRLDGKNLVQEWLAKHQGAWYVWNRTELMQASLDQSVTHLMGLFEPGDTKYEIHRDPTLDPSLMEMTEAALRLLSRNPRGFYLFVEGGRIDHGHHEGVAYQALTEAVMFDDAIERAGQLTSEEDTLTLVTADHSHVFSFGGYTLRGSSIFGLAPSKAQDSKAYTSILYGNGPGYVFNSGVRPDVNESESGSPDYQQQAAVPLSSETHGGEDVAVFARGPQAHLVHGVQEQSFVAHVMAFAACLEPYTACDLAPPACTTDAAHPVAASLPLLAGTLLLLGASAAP
Sequence of Intestinal-type alkaline phosphatase (Mus musculus, UniProt P24822) (P24822 whole entry): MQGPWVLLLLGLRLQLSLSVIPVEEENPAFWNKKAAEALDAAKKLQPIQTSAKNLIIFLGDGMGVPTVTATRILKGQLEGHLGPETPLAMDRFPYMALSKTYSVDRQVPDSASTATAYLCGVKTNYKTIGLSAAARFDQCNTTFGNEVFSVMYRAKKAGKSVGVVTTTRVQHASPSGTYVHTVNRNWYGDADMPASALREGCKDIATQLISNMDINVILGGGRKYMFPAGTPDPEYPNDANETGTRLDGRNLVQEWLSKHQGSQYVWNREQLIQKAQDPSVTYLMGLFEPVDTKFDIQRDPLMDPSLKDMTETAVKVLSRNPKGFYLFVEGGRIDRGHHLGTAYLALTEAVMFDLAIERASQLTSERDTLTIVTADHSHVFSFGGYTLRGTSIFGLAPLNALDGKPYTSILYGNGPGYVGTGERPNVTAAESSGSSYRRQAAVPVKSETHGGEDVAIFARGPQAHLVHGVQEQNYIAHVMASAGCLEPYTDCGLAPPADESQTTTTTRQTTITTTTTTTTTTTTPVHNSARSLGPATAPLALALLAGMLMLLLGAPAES

Turning to `CCCCCCSC1=C(C#N)C(=O)NC2(CCCCC2)S1`, the AC50 in [1] was > 100 µM (inactive).

Regarding `O=c1[nH]cnc2scc(-c3ccc(-c4ccccc4)cc3)c12`, the EC50 in [2] and in [3] was > 99 µM (inactive) in each case.

As for `O=C(/C(=C/c1ccc(Cl)cc1)c1nc2ccccc2[nH]1)c1ccccc1`, the EC50 in [4] was 0.824 µM (active); in assay [5] it was 3.64 µM (active); in [6], > 60 µM (not active); in assay [7], 3.11 µM (active). Further, the results for the AC50 (at Cytochrome P450 2C19; in the assay on INS1; in assay [8]) were 1.58 µM (inconclusive), 2.98 µM (active) and 7.94 µM (active), respectively.

For the molecule `COc1cccc(-c2ncc3ccccc3c2CO)c1`, the AC50 in [1] was 38 µM (active).

For the molecule `Cc1ccc(S(=O)(=O)N2CCC(C(=O)Nc3ccc(C(C)C)cc3)CC2)cc1`, the CC50 in assay [9] was 13 µM (active). For the same molecule, the IC50 is 7.81 µM (active) in [10], > 100 µM (inactive) in assay [11], > 100 µM (inactive) in assay [12] and 40.7 µM (active) in the assay “cells [13]”.

As for `COc1ccc(-c2cc(C(=O)N3CCOCC3)no2)cc1`, the AC50 in assay [14] was 10.4 µM (active); in [15] it was 8.26 µM (active).

In the case of `Nc1nccnc1C(=O)OCC(=O)Nc1ccc2[nH]c(O)nc2c1`, the IC50 in assay [16] is > 66.6 µM (inactive); in assay [17], 11.9 µM (active).

For the molecule `O=C(Nc1nnc(-c2ccccc2Cl)o1)c1cccnc1`, the cytotoxic concentration (CC50) in [18] was > 20 µM (active). Moreover, in the assay “cells [19]”, the IC50 is 8.68 µM (active). Moreover, the AC50 in assay [20] was 91.9 µM (active).

With `COc1ccccc1NS(=O)(=O)c1cc(NC(=O)Nc2ccccc2)ccc1N1CCCCC1`, the IC50 was 19.7 µM (inactive) in assay [21] and 83.3 µM (inactive) in assay [22].

In the case of `O=C1NC(=O)N(CCc2ccc(F)cc2)C(=O)/C1=C/NNC(=O)c1ccncc1`, the IC50 at Galanin receptor type 3 is > 29.9 µM (inactive). In “cells [23]”, the EC50 was > 29.9 µM (inactive).

As usually defined, the AC50 is the concentration giving half of the maximal activity seen. By EC50 is commonly meant the concentration giving half of the maximal effect. One may read the CC50 as the concentration giving 50% cytotoxicity.
